Data as given in US10821115B2, “Compounds that inhibit Mcl-1 protein” (priority 2017, dated 2020).
Like-named read-outs stand apart in the source and are kept apart here.

What was measured:
[1] = target: recombinant human Mcl-1 (residues 171-327) / Bim interaction (Homo sapiens (Human), UniProt Q07820); test: biochemical; type: binding; conditions: read-out: Mcl-1 HTRF IC50
[2] = test system: human multiple myeloma cell line, OPM-2; test: Cell viability assay (OPM-2 10 FBS), CellTiter-Glo; type: cell-based
How it was run: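 OPM-2 cells at 3000 cells/well in RPMI 1640 with 10% FBS were exposed to serially diluted compounds for 16 h at 37 °C, 5% CO2.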

[3] = 0.1 nM Mcl-1(171-327), 0.05 nM biotin-Bim (51-76)
[4] = Homo sapiens, OPM-2, 16 h, read-out: OPM-2 10% FBS IC50 IP, OPM-2 cells, 10% FBS, 16 h incubation
[5] = Homo sapiens, OPM-2, 16 h, read-out: OPM-2 10% FBS IC50 IP, OPM-2 cells, 10% FBS, 16 h, CellTiter-Glo
[6] = TR-FRET, Mcl-1(171-327) / biotin-Bim (51-76)
[7] = read-out: OPM-2 10% FBS IC50 IP, OPM-2 cells, 10% FBS, 16 h, CellTiter-Glo

recombinant human Mcl-1 (residues 171-327) / Bim interaction, sequence (Q07820 171-327): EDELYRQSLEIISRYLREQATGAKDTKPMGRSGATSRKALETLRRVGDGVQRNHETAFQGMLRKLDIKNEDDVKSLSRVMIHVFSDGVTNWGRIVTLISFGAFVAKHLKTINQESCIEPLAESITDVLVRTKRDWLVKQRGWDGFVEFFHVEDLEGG

SMILES | IC50 [1, 3] [nM] | IC50 [2, 4] [nM] | IC50 [2, 5] [nM] | IC50 [1, 6] [nM] | also measured
CO[C@@]1(CN2CCN(c3ccccc3)CC2)/C=C/C[C@H](C)[C@@H](C)S(=O)(=O)NC(=O)c2ccc3c(c2)N(C[C@@H]2CC[C@H]21)C[C@@]1(CCCc2cc(Cl)ccc21)CO3 [Example 251, (1S,3′R,6′R,7′S,8′E,11′S,12′R)-6-chloro-7′-methoxy-11′,12′-dimethyl-7′-((4-phenyl-1-piperazinyl)methyl)-3,4-dihydro-2H,15′H-spiro[naphthalene-1,22′-[20]oxa[13]thia[1,14]diazatetracyclo [14.7.2.0~3,6~.0~19,24~]pentacosa[8,16,18,24]tetraen]-15′-one 13′,13′-dioxide] | 2.26 | 3870 |  |  | 
C[C@@H]1[C@@H](C)C/C=C/[C@@](C)(O)[C@@H]2CC[C@H]2CN2C[C@@]3(CCCc4cc(Cl)ccc43)COc3ccc(cc32)C(=O)NS1(=O)=O [Example 100182, (1S,3′R,6′R,7′R,8′E,11′S,12′R)-6-chloro-7′-hydroxy-7′,11′,12′-trimethyl-3,4-dihydro-2H,15′H-spiro[naphthalene-1,22′-[20]oxa[13]thia[1,14]diazatetracyclo [14.7.2.0~3,6~.0~19,24~]pentacosa[8,16,18,24]tetraen]-15′-one 13′,13′-dioxide] |  |  | 827 |  | IC50 [1]: 0.863 nM
C[C@@H]1[C@@H](C)CCC[C@](C)(CN2CCN3CCOC[C@@H]3C2)[C@@H]2CC[C@H]2CN2C[C@@]3(CCCc4cc(Cl)ccc43)COc3ccc(cc32)C(=O)NS1(=O)=O [Example 100300, (1S,3′R,6′R,7′S,11′S,12′R)-6-chloro-7′-((9aS)-hexahydropyrazino[2,1-c][1,4]oxazin-8(1H)-ylmethyl)-7′,11′,12′-trimethyl-3,4-dihydro-2H,15′H-spiro[naphthalene-1,22′-[20]oxa[13]thia[1,14]diazatetracyclo [14.7.2.0~3,6~.0~19,24~]pentacosa[16,18,24]trien]-15′-one 13′,13′-dioxide] |  |  | 235 | 0.109 | 
CO[C@@]1(CN2CCN(C3(C#N)COC3)CC2)/C=C/C[C@H](C)[C@@H](C)S(=O)(=O)NC(=O)c2ccc3c(c2)N(C[C@@H]2CC[C@H]21)C[C@@]1(CCCc2cc(Cl)ccc21)CO3 [Example 272, 3-(4-(((1S,3′R,6′R,7′S,8′E,11′S,12′R )-6-chloro-7′-methoxy-11′,12′-dimethyl-13′,13′-dioxido-15′-oxo-3,4-dihydro-2H-spiro[naphthalene-1,22′-[20]oxa[13]thia[1,14]diazatetracyclo [14.7.2.0~3,6~.0~19,24~]pentacosa[8,16,18,24]tetraen]-7′-yl)methyl)-1-piperazinyl)-3-oxetanecarbonitrile] | 0.144 | 137 |  |  | 
CO[C@]1(C[C@H](O)C(C)C)/C=C/C[C@H](C)[C@@H](C)S(=O)(=O)NC(=O)c2ccc3c(c2)N(C[C@@H]2CC[C@H]21)C[C@@]1(CCCc2cc(Cl)ccc21)CO3 [Example 100358, (1S,3′R,6′R,7′R,8′E,11′S,12′R)-6-chloro-7′-((2S)-2-hydroxy-3-methylbutyl)-7′-methoxy-11′,12′-dimethyl-3,4-dihydro-2H,15′H-spiro[naphthalene-1,22′-[20]oxa[13]thia[1,14]diazatetracyclo [14.7.2.0~3,6~.0~19,24~]pentacosa[8,16,18,24]tetraen]-15′-one 13′,13′-dioxide] |  |  |  | 0.118 | IC50 [2, 7]: 81 nM
C[C@@H]1[C@@H](C)C/C=C/[C@]2(CN(Cc3cccnc3)CCO2)[C@@H]2CC[C@H]2CN2C[C@@]3(CCCc4cc(Cl)ccc43)COc3ccc(cc32)C(=O)NS1(=O)=O [Example 137, (1S,3′R,6′R,7′R,8′E,11′S,12′R)-6-chloro-11′,12′-dimethyl-4″- (3-pyridinylmethyl)-3,4-dihydro-2H,15′H-dispiro[naphthalene-1,22′-[20]oxa[13]thia[1,14]diazatetracyclo [14.7.2.0~3,6~.0~19,24~]pentacosa[8,16,18,24]tetraene-7′,2″-[1,4]oxazinan]-15′-one 13′,13′-dioxide] | 4.74 | 1150 |  |  | 
CCCCN1CCN(C[C@]2(OC)/C=C/C[C@H](C)[C@@H](C)S(=O)(=O)NC(=O)c3ccc4c(c3)N(C[C@@H]3CC[C@H]32)C[C@@]2(CCCc3cc(Cl)ccc32)CO4)CC1 [Example 301, (1S,3′R,6′R,7′S,8′E,11′S,12′R)-7′-((4-butyl-1-piperazinyl)methyl)-6-chloro-7′-methoxy-11′,12′-dimethyl-3,4-dihydro-2H,15′H-spiro[naphthalene-1,22′-[20]oxa[13]thia[1,14]diazatetracyclo [14.7.2.0~3,6~.0~19,24~]pentacosa[8,16,18,24]tetraen]-15′-one 13′,13′-dioxide] | 0.196 | 141 |  |  | 
CO[C@@]1(c2cnccc2F)/C=C/C[C@H](C)[C@@H](C)S(=O)(=O)NC(=O)c2ccc3c(c2)N(C[C@@H]2CC[C@H]21)C[C@@]1(CCCc2cc(Cl)ccc21)CO3 (single isomer, unassigned) [Example 100538] |  |  | 2400 | 1.47 | 
CO[C@@]1(CN2CCN(Cc3noc(C)n3)CC2)/C=C/C[C@H](C)[C@@H](C)S(=O)(=O)NC(=O)c2ccc3c(c2)N(C[C@@H]2CC[C@H]21)C[C@@]1(CCCc2cc(Cl)ccc21)CO3 [Example 316, (1S,3′R,6′R,7′S,8′E,11′S,12′R)-6-chloro-7′-methoxy-11′,12′-dimethyl-7′-((4-((5-methyl-1,2,4-oxadiazol-3-yl)methyl)-1-piperazinyl)methyl)-3,4-dihydro-2H,15′H-spiro[naphthalene-1,22′-[20]oxa[13]thia[1,14]diazatetracyclo [14.7.2.0~3,6~.0~19,24~]pentacosa[8,16,18,24]tetraen]-15′-one 13′,13′-dioxide] | 0.166 | 47 |  |  | 
CC[C@@]1(O)/C=C/C[C@H](C)[C@@H](C)S(=O)(=O)NC(=O)c2ccc3c(c2)N(C[C@@H]2CC[C@H]21)C[C@@]1(CCCc2cc(Cl)ccc21)CO3 [Example 100206, (1S,3′R,6′R,7′R,8′E,11′S,12′R)-6-chloro-7′-ethyl-7′-hydroxy-11′,12′-dimethyl-3,4-dihydro-2H,15′H-spiro[naphthalene-1,22′-[20]oxa[13]thia[1,14]diazatetracyclo [14.7.2.0~3,6~.0~19,24~]pentacosa[8,16,18,24]tetraen]-15′-one 13′,13′-dioxide] |  |  | 1750 | 1.26 | 
CO[C@@]1(CC(=O)O)/C=C/C[C@H](C)[C@@H](C)S(=O)(=O)NC(=O)c2ccc3c(c2)N(C[C@@H]2CC[C@H]21)C[C@@]1(CCCc2cc(Cl)ccc21)CO3 [Example 100307, ((1S,3′R,6′R,7′S,8′E,11′S,12′R)-6-chloro-7′-methoxy-11′,12′-dimethyl-13′,13′-dioxido-15′-oxo-3,4-dihydro-2H-spiro[naphthalene-1,22′-[20]oxa[13]thia[1,14]diazatetracyclo [14.7.2.0~3,6~.0~19,24~]pentacosa[8,16,18,24]tetraen]-7′-yl)acetic acid] |  |  | 1030 | 0.049 | 
C[C@@H]1[C@@H](C)C/C=C/[C@](O)(C2CC2)[C@@H]2CC[C@H]2CN2C[C@@]3(CCCc4cc(Cl)ccc43)COc3ccc(cc32)C(=O)NS1(=O)=O [Example 100213, (1S,3′R,6′R,7′R,8′E,11′S,12′R)-6-chloro-7′-cyclopropyl-7′-hydroxy-11′,12′-dimethyl-3,4-dihydro-2H,15′H-spiro[naphthalene-1,22′-[20]oxa[13]thia[1,14]diazatetracyclo [14.7.2.0~3,6~.0~19,24~]pentacosa[8,16,18,24]tetraen]-15′-one 13′,13′-dioxide] |  |  | 2020 | 2.84 | 
C[C@@H]1[C@@H](C)CCC[C@](O)(CO)[C@@H]2CC[C@H]2CN2C[C@@]3(CCCc4cc(Cl)ccc43)COc3ccc(cc32)C(=O)NS1(=O)=O (single isomer, unassigned) [Example 100052] |  |  | 424 | 0.191 | 
CO[C@@]1(C#CCO)/C=C/C[C@H](C)[C@@H](C)S(=O)(=O)NC(=O)c2ccc3c(c2)N(C[C@@H]2CC[C@H]21)C[C@@]1(CCCc2cc(Cl)ccc21)CO3 [Example 100345, (1S,3′R,6′R,7′S,8′E,11′S,12′R)-6-chloro-7′-(3-hydroxy-1-propyn-1-yl)-7′-methoxy-11′,12′-dimethyl-3,4-dihydro-2H,15′H-spiro[naphthalene-1,22′-[20]oxa[13]thia[1,14]diazatetracyclo [14.7.2.0~3,6~.0~19,24~]pentacosa[8,16,18,24]tetraen]-15′-one 13′,13′-dioxide] |  |  |  | 2.42 | IC50 [2, 7]: 218 nM
CO[C@@]1(CN2CCN(Cc3ncon3)CC2)/C=C/C[C@H](C)[C@@H](C)S(=O)(=O)NC(=O)c2ccc3c(c2)N(C[C@@H]2CC[C@H]21)C[C@@]1(CCCc2cc(Cl)ccc21)CO3 [Example 321, (1S,3′R,6′R,7′S,8′E,11′S,12′R)-6-chloro-7′-methoxy-11′,12′-climethyl-7′-((4-(1,2,4-oxadiazol-3-ylmethyl)-1-piperazinyl)methyl)-3,4-dihydro-2H,15′H-spiro[naphthalene-1,22′-[20]oxa[13]thia[1,14]diazatetracyclo [14.7.2.0~3,6~.0~19,24~]pentacosa[8,16,18,24]tetraen]-15′-one 13′,13′-dioxide] | 0.145 | 92 |  |  | 
